In patent US20250129430A1, “HIGH ATP-AFFINITY PROTEIN AS THERAPEUTIC TARGET FOR INTRACTABLE CANCER MOLECULAR SUBTYPES AND INHIBITOR THEREOF” (VeraVerse Co., Ltd., priority 2021, published 2025):
Structures can show the parent of a compound that is named as a salt.

Tests used:
Experiment in all cases: Cell viability drug screen, 12-point dose-response AUC
Type in all cases: cell-based, human
FU97 = test system: FU97; parameters: Average Area Under the Viability Curve (AUC), AUC norm value: scale not given here; conditions: FU97 cells; 72 hours
Method in brief: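 Trapezoidal AUC of a 12-point, DMSO-normalized dose-response curve. Luminescent viability was measured after 72 h of exposure at 37° C to half-log serial dilutions (0.5% DMSO control), dosed 24 h after plating FU97 cells at 5×10^3 per well.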

SNU1 = SNU1 cells; 72 hours
Method in brief: (§1)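 Dose-response AUC reflects 72 h drug exposure of gastric cancer cells in a 12-point, half-log format, with viability read by luminescence and normalized to DMSO (0.5%).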

Hs746T = Hs746T cells (SEM subtype); 72 hours
Method in brief: as §1

SNU484 = SNU484 cells (SEM subtype); 72 hours
Method in brief: as §1

YCC2 = YCC2 cells; 72 hours
Method in brief: as §1

NCC59 = NCC59 cells; 72 hours
Method in brief: as §1

OCUM1 = OCUM1 cells; 72 hours
Method in brief: as §1

SNU638 = SNU638 cells; 72 hours
Method in brief: as §1

NCC20 = NCC20 cells; 72 hours
Method in brief: as §1

SNU719 = SNU719 cells; 72 hours
Method in brief: (§2)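 Viability: luminescence (Glo kit, 15 min RT), normalized to 0.5% DMSO vehicle. Dosing: half-log, 12 concentrations, 72 h. Cells: 5×10^3/well, treated 24 h after plating. Value: trapezoidal AUC, mean of repeats.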

SNU16 = SNU16 cells; 72 hours
Method in brief: as §1

SNU601 = SNU601 cells; 72 hours
Method in brief: as §1

NCC24 = NCC24 cells; 72 hours
Method in brief: as §1

KATO3 = KATO3 cells; 72 hours
Method in brief: as §1

MKN74 = MKN74 cells; 72 hours
Method in brief: as §2

MKN28 = MKN28 cells; 72 hours
Method in brief: as §1

YCC3 = YCC3 cells; 72 hours
Method in brief: as §1

SNU216 = SNU216 cells (non-SEM subtype); 72 hours
Method in brief: as §2

SK4 = SK4 cells (SEM subtype); 72 hours
Method in brief: as §1

AGS = AGS cells (non-SEM subtype); 72 hours
Method in brief: as §2

NCC19 = NCC19 cells; 72 hours
Method in brief: as §1

MKN1 = MKN1 cells; 72 hours
Method in brief: as §1

SNU1967 = SNU1967 cells; 72 hours
Method in brief: as §1

MKN45 = MKN45 cells (non-SEM subtype); 72 hours
Method in brief: as §2

SNU668 = SNU668 cells (SEM subtype); 72 hours
Method in brief: as §1

YCC11 = YCC11 cells (SEM subtype); 72 hours
Method in brief: as §1

SNU620 = SNU620 cells; 72 hours
Method in brief: as §1

SNU1750 = SNU1750 cells (SEM subtype); 72 hours
Method in brief: as §1

NCI_N87 = NCI_N87 cells; 72 hours
Method in brief: as §1

COc1cc(N2CCC(N3CCN(C)CC3)CC2)ccc1Nc1ncc(Cl)c(Nc2ccccc2S(=O)(=O)C(C)C)n1 [TAE684 (NVP-TAE684), TAE684]
Average Area Under the Viability Curve (AUC), AUC norm value (FU97): −1.587
Average Area Under the Viability Curve (AUC), AUC norm value (SNU1): −0.1185
Average Area Under the Viability Curve (AUC), AUC norm value (Hs746T): 1.039
Average Area Under the Viability Curve (AUC), AUC norm value (SNU484): −0.6182
Average Area Under the Viability Curve (AUC), AUC norm value (YCC2): −0.5512
Average Area Under the Viability Curve (AUC), AUC norm value (NCC59): 1.273
Average Area Under the Viability Curve (AUC), AUC norm value (OCUM1): −0.2195
Average Area Under the Viability Curve (AUC), AUC norm value (SNU638): 0.4071
Average Area Under the Viability Curve (AUC), AUC norm value (NCC20): −2.659
Average Area Under the Viability Curve (AUC), AUC norm value (SNU719): 1.051
Average Area Under the Viability Curve (AUC), AUC norm value (SNU16): −3.18
Average Area Under the Viability Curve (AUC), AUC norm value (SNU601): 1.062
Average Area Under the Viability Curve (AUC), AUC norm value (NCC24): 1.662
Average Area Under the Viability Curve (AUC), AUC norm value (KATO3): 0.2672
Average Area Under the Viability Curve (AUC), AUC norm value (MKN74): −0.04126
Average Area Under the Viability Curve (AUC), AUC norm value (MKN28): −0.4177
Average Area Under the Viability Curve (AUC), AUC norm value (YCC3): 1.708
Average Area Under the Viability Curve (AUC), AUC norm value (SNU216): 0.5205
Average Area Under the Viability Curve (AUC), AUC norm value (SK4): −0.6572
Average Area Under the Viability Curve (AUC), AUC norm value (AGS): −1.326
Average Area Under the Viability Curve (AUC), AUC norm value (NCC19): 1.944
Average Area Under the Viability Curve (AUC), AUC norm value (MKN1): 0
Average Area Under the Viability Curve (AUC), AUC norm value (SNU1967): −1.412
Average Area Under the Viability Curve (AUC), AUC norm value (MKN45): 2.601
Average Area Under the Viability Curve (AUC), AUC norm value (SNU668): 1.009
Average Area Under the Viability Curve (AUC), AUC norm value (YCC11): −1.4836
Average Area Under the Viability Curve (AUC), AUC norm value (SNU620): 0.4637
Average Area Under the Viability Curve (AUC), AUC norm value (SNU1750): −0.941
Average Area Under the Viability Curve (AUC), AUC norm value (NCI_N87): 2.003

COc1cc([C@@H]2c3cc4c(cc3[C@@H](O[C@@H]3O[C@@H]5CO[C@@H](c6cccs6)O[C@H]5[C@H](O)[C@H]3O)[C@H]3COC(=O)[C@H]23)OCO4)cc(OC)c1O [Teniposide (Vumon), Teniposide]
Average Area Under the Viability Curve (AUC), AUC norm value (FU97): 1.309
Average Area Under the Viability Curve (AUC), AUC norm value (SNU1): −0.3019
Average Area Under the Viability Curve (AUC), AUC norm value (Hs746T): 0.6261
Average Area Under the Viability Curve (AUC), AUC norm value (SNU484): −1.211
Average Area Under the Viability Curve (AUC), AUC norm value (YCC2): 0.249
Average Area Under the Viability Curve (AUC), AUC norm value (NCC59): 1.59
Average Area Under the Viability Curve (AUC), AUC norm value (OCUM1): 1.001
Average Area Under the Viability Curve (AUC), AUC norm value (SNU638): −0.3584
Average Area Under the Viability Curve (AUC), AUC norm value (NCC20): −0.8716
Average Area Under the Viability Curve (AUC), AUC norm value (SNU719): 2.899
Average Area Under the Viability Curve (AUC), AUC norm value (SNU16): −0.8192
Average Area Under the Viability Curve (AUC), AUC norm value (SNU601): −1.094
Average Area Under the Viability Curve (AUC), AUC norm value (NCC24): −0.5766
Average Area Under the Viability Curve (AUC), AUC norm value (KATO3): 1.852
Average Area Under the Viability Curve (AUC), AUC norm value (MKN74): 0.3993
Average Area Under the Viability Curve (AUC), AUC norm value (MKN28): 0.1008
Average Area Under the Viability Curve (AUC), AUC norm value (YCC3): 2.1949
Average Area Under the Viability Curve (AUC), AUC norm value (SNU216): 0.9296
Average Area Under the Viability Curve (AUC), AUC norm value (SK4): −0.2681
Average Area Under the Viability Curve (AUC), AUC norm value (AGS): −2.042
Average Area Under the Viability Curve (AUC), AUC norm value (NCC19): 2.415
Average Area Under the Viability Curve (AUC), AUC norm value (MKN1): −1.955
Average Area Under the Viability Curve (AUC), AUC norm value (SNU1967): −0.7519
Average Area Under the Viability Curve (AUC), AUC norm value (MKN45): 1.933
Average Area Under the Viability Curve (AUC), AUC norm value (SNU668): −0.6175
Average Area Under the Viability Curve (AUC), AUC norm value (YCC11): −1.342
Average Area Under the Viability Curve (AUC), AUC norm value (SNU620): 0
Average Area Under the Viability Curve (AUC), AUC norm value (SNU1750): −0.5618
Average Area Under the Viability Curve (AUC), AUC norm value (NCI_N87): 2.319

CC(C)(C)c1ccc(C(O)CCCN2CCC(C(O)(c3ccccc3)c3ccccc3)CC2)cc1 (centres unmarked) [Terfenadine]
Average Area Under the Viability Curve (AUC), AUC norm value (FU97): 1.163
Average Area Under the Viability Curve (AUC), AUC norm value (SNU1): 1.34
Average Area Under the Viability Curve (AUC), AUC norm value (Hs746T): −0.3246
Average Area Under the Viability Curve (AUC), AUC norm value (SNU484): 0.06057
Average Area Under the Viability Curve (AUC), AUC norm value (YCC2): 0.4862
Average Area Under the Viability Curve (AUC), AUC norm value (NCC59): 2.3563
Average Area Under the Viability Curve (AUC), AUC norm value (OCUM1): 1.032
Average Area Under the Viability Curve (AUC), AUC norm value (SNU638): −0.8091
Average Area Under the Viability Curve (AUC), AUC norm value (NCC20): −1.029
Average Area Under the Viability Curve (AUC), AUC norm value (SNU719): 1.059
Average Area Under the Viability Curve (AUC), AUC norm value (SNU16): 0
Average Area Under the Viability Curve (AUC), AUC norm value (SNU601): 2.641
Average Area Under the Viability Curve (AUC), AUC norm value (NCC24): −2.355
Average Area Under the Viability Curve (AUC), AUC norm value (KATO3): 0.4901
Average Area Under the Viability Curve (AUC), AUC norm value (MKN74): −1.589
Average Area Under the Viability Curve (AUC), AUC norm value (MKN28): −0.2901
Average Area Under the Viability Curve (AUC), AUC norm value (YCC3): 1.423
Average Area Under the Viability Curve (AUC), AUC norm value (SNU216): 1.499
Average Area Under the Viability Curve (AUC), AUC norm value (SK4): −0.8713
Average Area Under the Viability Curve (AUC), AUC norm value (AGS): −1.278
Average Area Under the Viability Curve (AUC), AUC norm value (NCC19): 3.135
Average Area Under the Viability Curve (AUC), AUC norm value (MKN1): −0.8127
Average Area Under the Viability Curve (AUC), AUC norm value (SNU1967): −1.065
Average Area Under the Viability Curve (AUC), AUC norm value (MKN45): −0.5441
Average Area Under the Viability Curve (AUC), AUC norm value (SNU668): −0.5647
Average Area Under the Viability Curve (AUC), AUC norm value (YCC11): −0.996
Average Area Under the Viability Curve (AUC), AUC norm value (SNU620): 0.4918
Average Area Under the Viability Curve (AUC), AUC norm value (SNU1750): −0.05758
Average Area Under the Viability Curve (AUC), AUC norm value (NCI_N87): 1.465

CC[C@@]1(O)C(=O)OCc2c1cc1n(c2=O)Cc2cc3c(CN(C)C)c(O)ccc3nc2-1 [Topotecan HCI, Topotecan HCl]
Average Area Under the Viability Curve (AUC), AUC norm value (FU97): −0.8445
Average Area Under the Viability Curve (AUC), AUC norm value (SNU1): −0.6163
Average Area Under the Viability Curve (AUC), AUC norm value (Hs746T): 0.4587
Average Area Under the Viability Curve (AUC), AUC norm value (SNU484): 1.128
Average Area Under the Viability Curve (AUC), AUC norm value (YCC2): 0.1906
Average Area Under the Viability Curve (AUC), AUC norm value (NCC59): 1.957
Average Area Under the Viability Curve (AUC), AUC norm value (OCUM1): −1.681
Average Area Under the Viability Curve (AUC), AUC norm value (SNU638): −0.7133
Average Area Under the Viability Curve (AUC), AUC norm value (NCC20): −2.367
Average Area Under the Viability Curve (AUC), AUC norm value (SNU719): 3.069
Average Area Under the Viability Curve (AUC), AUC norm value (SNU16): −0.5292
Average Area Under the Viability Curve (AUC), AUC norm value (SNU601): −0.5589
Average Area Under the Viability Curve (AUC), AUC norm value (NCC24): 0.0033
Average Area Under the Viability Curve (AUC), AUC norm value (KATO3): 5.01
Average Area Under the Viability Curve (AUC), AUC norm value (MKN74): 0
Average Area Under the Viability Curve (AUC), AUC norm value (MKN28): 1.259
Average Area Under the Viability Curve (AUC), AUC norm value (YCC3): 1.923
Average Area Under the Viability Curve (AUC), AUC norm value (SNU216): 1.123
Average Area Under the Viability Curve (AUC), AUC norm value (SK4): −0.4515
Average Area Under the Viability Curve (AUC), AUC norm value (AGS): −2.159
Average Area Under the Viability Curve (AUC), AUC norm value (NCC19): 2.896
Average Area Under the Viability Curve (AUC), AUC norm value (MKN1): −0.9954
Average Area Under the Viability Curve (AUC), AUC norm value (SNU1967): −2.648
Average Area Under the Viability Curve (AUC), AUC norm value (MKN45): 1.195
Average Area Under the Viability Curve (AUC), AUC norm value (SNU668): −1.128
Average Area Under the Viability Curve (AUC), AUC norm value (YCC11): −0.573
Average Area Under the Viability Curve (AUC), AUC norm value (SNU620): −0.7611
Average Area Under the Viability Curve (AUC), AUC norm value (SNU1750): 0.2818
Average Area Under the Viability Curve (AUC), AUC norm value (NCI_N87): 2.857
